The results in this text go back to patent publication US20100009956A1, “NOVEL SUBSTITUTED PYRIMIDINES AS CYSTEINE PROTEASE INHIBITORS” (Glaxo Group Limited , a corporation, priority 2006, published 2010).

Where a name gives a salt, the structure may show the parent alone. Read-outs that look alike come from different tables or passages of the source. Bounds are passed on as bounds.

What all share (format): biochemical
One experiment deals with Falcipain-2 (Plasmodium falciparum, UniProt Q8I6U4). Kind of experiment: Falcipain-2 enzymatic assay (assay 1). The method, then:
(§1) Assay 1) Determination of Falcipain-2, Falcipain-3, Vivapain-2, Cathepsin K Cathepsin S, Cathepsin L, and Cathepsin B Proteolytic Catalytic Activity
(§2) Assays for Falcipain-2, Falcipain-3, and Vivapain-2 are carried out with parasitic recombinant enzymes. Cathepsins K, S, L, and B are carried out with human recombinant enzymes. Standard assay conditions for the determination of kinetic constants used a fluorogenic peptide substrate, typically H-D-VLR-AFC (Falcipain-2, Falcipain-3, Vivapain-2), Z-FR-AFC (Cathepsin K, L, B), or KQKLR-AMC (Cathepsin S) and are determined in 100 mM sodium acetate, pH 5.5, containing 10 mM DTT and 0.5 mM CHAPS (Falcipain-2, Falcipain-3, Vivapain-2), and 100 mM sodium acetate, pH 5.5, containing 5 mM L-cysteine, 1 mM CHAPS and 5 mM EDTA (Cathepsin K, L, B), or 50 mM MES, pH 6.5, containing 0.5 mM CHAPS, 10 mM L-CYS, 5 mM EDTA (Cathepsin S). Stock substrate solutions are prepared at 20 mM in DMSO. The activity assays contained 30 uM substrate (Falcipain-2, Falcipain-3, Vivapain-2), 20 uM substrate (Cathepsin K), 25 uM substrate (Cathepsin B), 5 uM substrate (Cathepsin L), and 30 uM substrate (Cathepsin S). All assays contained 1% DMSO. […] All assays are conducted at ambient temperature as end point assays being quenched after 60 minutes with the exception of Cathepsin S at 90 minutes, with 16.6 uM E-64 in 1% DMSO. Product formation (AFC or AMC) is determined from fluorescence (excitation at 405 nm; emission at 530 nm, AFC, or excitation at 360 nm; emission at 460 nm, AMC) monitored with a LJL Aquest (Molecular Devices) fluorescent plate reader. In the case of kinetic reads (used in mechanism of action studies), the reaction is not quenched but is read in the plate reader every 3 minutes for approximately 90 minutes. In addition, the mechanism of action studies for Falcipain-2 utilize Z-LR-AMC as the substrate. Product formation is determined from the fluorescence of AMC, measured with a LJL Acquest (Molecular Devices) fluorescent plate reader (excitation at 360 nm; emission at 460 nm).
(§3) Potential inhibitors are evaluated using the quenched read (endpoint) method. Assays are carried out in the presence of variable concentrations of test compound. Reactions are initiated by addition of enzyme and substrate to wells containing inhibitor stamped in 100% DMSO. For endpoint assays, the reaction is quenched with the addition of E64. Dose response data is fit to an IC50 curve with preset fitting tools according to equation 1:
(§4) y=a+(b−a)/(1+(10^x/10^c)^d) (1)
(§5) where y is the response at a particular inhibitor concentration x, a is the minimum response value, b is the maximum response value, c is the IC50, and d is the slope of the IC50 curve. Assuming the compound is a competitive inhibitor, the apparent KI can be calculated from IC50, as shown in equation 2: […]

For a further experiment, the target named is Falcipain-3 (Plasmodium falciparum, UniProt Q8IIL0). Description: Falcipain-3 enzymatic assay (assay 1). The method, then: as §1, §2, §3, §4, §5
In the next experiment the target is T1, Cathepsin K (Homo sapiens, UniProt P43235).
T1 sequence (P43235 115-329): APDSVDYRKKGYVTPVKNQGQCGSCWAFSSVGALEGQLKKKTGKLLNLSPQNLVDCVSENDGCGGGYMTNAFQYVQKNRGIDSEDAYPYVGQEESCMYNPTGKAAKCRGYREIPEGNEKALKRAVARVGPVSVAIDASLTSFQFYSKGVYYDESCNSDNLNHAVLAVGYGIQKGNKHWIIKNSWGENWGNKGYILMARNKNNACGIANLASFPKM
Description: Cathepsin K enzymatic assay (assay 1). The conditions noted are these: human recombinant enzyme, Z-FR-AFC substrate, pH 5.5. The method, then: as §1, §2, §3, §4, §5

Falcipain-2, sequence (Q8I6U4 244-484): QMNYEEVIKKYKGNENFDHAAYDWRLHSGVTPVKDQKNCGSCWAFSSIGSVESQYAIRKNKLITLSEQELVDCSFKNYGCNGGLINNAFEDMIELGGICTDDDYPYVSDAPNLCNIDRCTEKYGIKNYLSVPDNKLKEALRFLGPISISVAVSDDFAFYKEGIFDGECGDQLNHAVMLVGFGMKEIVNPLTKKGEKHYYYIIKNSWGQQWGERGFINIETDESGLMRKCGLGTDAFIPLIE
Falcipain-3, sequence (Q8IIL0 243-492): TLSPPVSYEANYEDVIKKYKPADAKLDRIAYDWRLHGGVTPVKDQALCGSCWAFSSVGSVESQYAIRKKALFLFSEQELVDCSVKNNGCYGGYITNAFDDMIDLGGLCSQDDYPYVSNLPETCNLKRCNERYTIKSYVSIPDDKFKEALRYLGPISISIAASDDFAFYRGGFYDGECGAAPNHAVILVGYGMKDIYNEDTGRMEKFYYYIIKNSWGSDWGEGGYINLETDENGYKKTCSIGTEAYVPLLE

In the case of `CN1CCC(CN2CCN(Cc3ccc(C(=O)NN(c4nc(C#N)ncc4Br)C4CCCC4)cc3)CC2)CC1` [Example 7, N′-(5-bromo-2-cyano-4-pyrimidinyl)-N′-cyclopentyl-4-({4-[(1-methyl-4-piperidinyl)methyl]-1-piperazinyl}methyl)benzohydrazide trifluoroacetate], the concentration for half-maximal inhibition (IC50) (as a rule, the midpoint of a concentration-inhibition curve) was less than 1 nM on Falcipain-2, 2.5 to 15 nM at Falcipain-3 and less than 1.5 nM on Cathepsin K.

On to `CN1CCCC(CN2CCN(Cc3cccc(C(=O)NN(c4nc(C#N)ncc4Br)C4CCCC4)c3)CC2)C1` (stereo not drawn) [Example 14, N′-(5-bromo-2-cyano-4-pyrimidinyl)-N′-cyclopentyl-3-({4-[(1-methyl-3-piperidinyl)methyl]-1-piperazinyl}methyl)benzohydrazide trifluoroacetate], for which the IC50 at Falcipain-2 was less than 1 nM; against Falcipain-3, 2.5 to 15 nM; on Cathepsin K, less than 1.5 nM.

Consider `C[C@@H]1CCC[C@H]1N(NC(=O)c1ccc(F)cc1)c1nc(C#N)ncc1Br` (racemic) [Example 43, N′-(5-bromo-2-cyano-4-pyrimidinyl)-4-fluoro-N′-[(1R,2R+1S,2S))-2-methylcyclopentyl]benzohydrazide trifluoroacetate], for which the 50% inhibitory concentration (IC50) against Falcipain-2 was less than 1 nM; at Falcipain-3, 2.5 to 15 nM; at Cathepsin K, less than 17 nM.

Take `CN1CCN(C(=O)C2CCN(Cc3ccc(C(=O)NN(c4nc(C#N)ncc4Br)C4CCCCC4)cc3)CC2)CC1` [Example 22, N′-(5-bromo-2-cyano-4-pyrimidinyl)-N′-cyclohexyl-4-({4-[(4-methyl-1-piperazinyl)carbonyl]-1-piperidinyl}methyl)benzohydrazide trifluoroacetate]: the IC50 was less than 1 nM against Falcipain-2, 2.5 to 15 nM at Falcipain-3 and less than 1.5 nM on Cathepsin K.

In the case of `CN1CCN(C2CCN(Cc3ccc(C(=O)NN(c4nc(C#N)ncc4Br)C4CCCC4)cc3)CC2)CC1` [Example 10, N′-(5-bromo-2-cyano-4-pyrimidinyl)-N′-cyclopentyl-4-{[4-(4-methyl-1-piperazinyl)-1-piperidinyl]methyl}benzohydrazide trifluoroacetate], the IC50 against Falcipain-2 is less than 1 nM; against Falcipain-3, 2.5 to 15 nM; on Cathepsin K it was less than 1.5 nM.

For the molecule `CN1CCCC(CN2CCN(Cc3ccc(C(=O)NN(c4nc(C#N)ncc4Br)C4CCCC4)cc3)CC2)C1` (stereo not drawn) [Example 8, N′-(5-bromo-2-cyano-4-pyrimidinyl)-N′-cyclopentyl-4-({4-[(1-methyl-3-piperidinyl)methyl]-1-piperazinyl}methyl)benzohydrazide trifluoroacetate], the 50% inhibitory concentration (IC50) against Falcipain-2 is less than 1 nM; against Falcipain-3, 2.5 to 15 nM; at Cathepsin K, less than 1.5 nM.

Turning to `N#Cc1ncc(Br)c(N(NC(=O)c2ccc(CN3CC(N4CCCC4)C3)cc2)C2CCOCC2)n1` [Example 33, N′-(5-bromo-2-cyano-4-pyrimidinyl)-4-{[3-(1-pyrrolidinyl)-1-azetidinyl]methyl}-N′-(tetrahydro-2H-pyran-4-yl)benzohydrazide trifluoroacetate], the concentration for half-maximal inhibition (IC50) against Falcipain-2 was less than 1 nM; against Falcipain-3, 15 to 150 nM; at Cathepsin K, less than 17 nM.

Turning to `CN1CCC(CN2CCN(Cc3ccc(C(=O)NN(c4nc(C#N)ncc4Br)C4CCOCC4)cc3)CC2)CC1` [Example 30, N′-(5—Bromo-2-cyano-4-pyrimidinyl)-4-({4-[(1-methyl-4-piperidinyl)methyl]-1-piperazinyl}methyl)-N′-(tetrahydro-2H-pyran-4-yl)benzohydrazide trifluoroacetate], the IC50 against Falcipain-2 was 1 to 2.5 nM; at Falcipain-3, 2.5 to 15 nM; at Cathepsin K it was less than 17 nM.

As to `N#Cc1ncc(Br)c(N(NC(=O)c2ccc(CN3CCC(N4CCOCC4)CC3)cc2)C2CCCC2)n1` [Example 6, N′-(5-bromo-2-cyano-4-pyrimidinyl)-N′-cyclopentyl-4-{([4-(4-morpholinyl)-1-piperidinyl]methyl}benzohydrazide trifluoroacetate], the IC50 on Falcipain-2 is less than 1 nM; against Falcipain-3 it was 2.5 to 15 nM; on Cathepsin K it was less than 1.5 nM.

Take `CN1CCN(C2CCN(Cc3cccc(C(=O)NN(c4nc(C#N)ncc4Br)C4CCCCC4)c3)CC2)CC1` [Example 20, N′-(5-bromo-2-cyano-4-pyrimidinyl)-N′-cyclohexyl-3-{([4-(4-methyl-1-piperazinyl)-1-piperidinyl]methyl}benzohydrazide trifluoroacetate]: the IC50 against Falcipain-2 was less than 1 nM; against Falcipain-3, 15 to 150 nM; at Cathepsin K, less than 1.5 nM.

Regarding `CN1CCN(C(=O)C2CCN(Cc3ccc(C(=O)NN(c4nc(C#N)ncc4Br)C4CCCC4)cc3)CC2)CC1` [Example 9, N′-(5-bromo-2-cyano-4-pyrimidinyl)-N′-cyclopentyl-4-({4-[(4-methyl-1-piperazinyl)carbonyl]-1-piperidinyl}methyl)benzohydrazide trifluoroacetate], the concentration for half-maximal inhibition (IC50) against Falcipain-2 was less than 1 nM; on Falcipain-3 it was 2.5 to 15 nM; on Cathepsin K it was less than 1.5 nM.

Regarding `C[C@H]1CCC[C@H]1N(NC(=O)c1ccc(CN2CCN(C)CC2)cc1)c1nc(C#N)ncc1Br` [Example 2, N′-(5-bromo-2-cyano-4-pyrimidinyl)-N′-[(1 R,2S+1S,2R)-2-methylcyclopentyl]-4-[(4-methyl-1-piperazinyl)methyl]benzohydrazide trifluoroacetate], the half-inhibitory concentration (IC50) was 1 to 2.5 nM at Falcipain-2, 15 to 150 nM against Falcipain-3 and less than 17 nM at Cathepsin K.

For `N#Cc1ncc(Br)c(N(NC(=O)c2cccc(CN3CCC(N4CCOCC4)CC3)c2)C2CCCCC2)n1` [Example 24, N′-(5-bromo-2-cyano-4-pyrimidinyl)-N′-cyclohexyl-3-{[4-(4-morpholinyl)-1-piperidinyl]methyl}benzohydrazide trifluoroacetate], the half-maximal inhibitory concentration (IC50) against Falcipain-2 was less than 1 nM; against Falcipain-3, 2.5 to 15 nM; on Cathepsin K, less than 1.5 nM.

Take `CN1CCC(CN2CCN(Cc3ccc(C(=O)NN(c4nc(C#N)ncc4Cl)C4CCOCC4)cc3)CC2)CC1` [Example 35, N′-(5-Chloro-2-cyano-4-pyrimidinyl)-4-({4-[(1-methyl-4-piperidinyl)methyl]-1-piperazinyl}methyl)-N′-(tetrahydro-2H-pyran-4-yl)benzohydrazide trifluoroacetate]: the half-maximal inhibitory concentration (IC50) on Falcipain-2 is 1 to 2.5 nM; against Falcipain-3 it was 15 to 150 nM; on Cathepsin K it was less than 17 nM.

`CN1CCN(C2CCN(Cc3cccc(C(=O)NN(c4nc(C#N)ncc4Br)C4CCCC4)c3)CC2)CC1` [Example 11, N′-(5-bromo-2-cyano-4-pyrimidinyl)-N′-cyclopentyl-3-{[4-(4-methyl-1-piperazinyl)-1-piperidinyl]methyl}benzohydrazide trifluoroacetate]: the half-maximal inhibitory concentration (IC50) against Falcipain-2 is less than 1 nM; on Falcipain-3, 2.5 to 15 nM; on Cathepsin K, less than 1.5 nM.

With `CN1CCN(C(=O)C2CCN(Cc3cccc(C(=O)NN(c4nc(C#N)ncc4Br)C4CCCCC4)c3)CC2)CC1` [Example 23, N′-(5-bromo-2-cyano-4-pyrimidinyl)-N′-cyclohexyl-3-({4-[(4-methyl-1-piperazinyl)carbonyl]-1-piperidinyl}methyl)benzohydrazide trifluoroacetate], the IC50 on Falcipain-2 was less than 1 nM; at Falcipain-3, 2.5 to 15 nM; on Cathepsin K, less than 1.5 nM.

As to `CN1CCN(C(=O)C2CCN(Cc3ccc(C(=O)NN(c4nc(C#N)ncc4Cl)C4CCOCC4)cc3)CC2)CC1` [Example 36, N′-(5-Chloro-2-cyano-4-pyrimidinyl)-4-({4-[(4-methyl-1-piperazinyl)carbonyl]-1-piperidinyl}methyl)-N′-(tetrahydro-2H-pyran-4-yl)benzohydrazide trifluoroacetate], the IC50 at Falcipain-2 (parasitic recombinant enzyme, H-D-VLR-AFC substrate, pH 5.5, endpoint read, read-out: Falcipain-2 IC50) is less than 1 nM; on Falcipain-3, 15 to 150 nM; on Cathepsin K, less than 17 nM.
